Results as given in patent publication US20080319175A1, “Transthyretin Stabilization” (The Scripps Research Institute, priority 2004, published 2008).
“Also recorded” adds a separate entry of the source.

How the values were obtained:
[1] = precipitation of small molecule under acid-mediated amyloidogenic conditions in the absence of TTR; assay type: physicochemical; settings: 3.6 μM, pH 4.4, 37° C., 72 h
Procedure: (§1) TTR amyloid inhibition efficacy was probed using a stagnant fibril formation assay described previously, wherein partial denaturation was triggered by acidification (pH 4.4, 37° C.) (Colon, W.; Kelly, J. W. Biochemistry 1992, 31, 8654-8660). Briefly, a test compound (7.2 or 3.6 μM) is incubated with TTR (3.6 μM) for 30 min in pH 7 buffer. Amyloidogenesis is then initiated by lowering to pH 4.4, where maximal fibril formation is observed with WT-TTR after 72 h (37° C.). The turbidity in the presence of a potential inhibitor (Ttest) is compared to that of a solution lacking a test compound (Tcontrol). […] From experience we know that excellent inhibitors allow <10% fibril formation at a small molecule concentration of 7.2 μM and <40% fibril formation at a concentration equal to that of WT-TTR (3.6 μM) (Hammarstrom, P.; et al. Science 2003, 299, 713-716; Klabunde, T.; et al. Nature Struct. Biol. 2000, 7, 312-321; Razavi, H.; et al. Angew Chem 2003, 42, 2758-2761; Miroy, G. J.; et al. Proc. Natl. Acad. Sci. USA 1996, 93, 15051-15056; Peterson, S. A.; et al. Proc. Natl. Acad. Sci. USA 1998, 95, 12956-12960; Baures, P. W.; et al. Bioorg. Med. Chem. 1998, 6, 1389-1401; Baures, P. W.; et al. Bioorg. Med. Chem. 1999, 7, 1339-1347; Petrassi, H. M.; et al. J. Am. Chem. Soc. 2000, 122, 2178-2192; McCammon, M. G.; et al. Structure 2002, 10, 851-863; Oza, V. B.; et al. J. Med. Chem. 2002, 45, 321-332; Sacchettini, J. C.; et al. Nature Rev. Drug Disc. 2002, 1, 267-275; Green, N. S.; et al. J. Am. Chem. Soc. 2003, 125, 13404-13414; Adamski-Werner, S. L.; et al. J. Med. Chem. 2004, 47, 355-374; Miller Sean, R.; et al. Lab. Inv. 2004, 84, 545-552). […] Therefore, when both the ligand and TTR are at equal concentrations, a population of TTR•I, TTR•I2 and unliganded TTR is observed, dictated by the dissociation constants. It is now established by other studies that inhibitor occupancy of only one of the two TTR binding sites is sufficient to stabilize the entire tetramer against amyloidogenesis (Wiseman, R. L.; et al. J. Am. Chem. Soc. 2005, in press). This is further supported by the observation herein that twenty-six of these dibenzofurans are excellent TTR amyloidogenesis inhibitors (<40% fibril formation) at a concentration equal to that of TTR (3.6 μM each, FIG. 3).

[2] = target: T1, TTR in human blood plasma (Homo sapiens, UniProt P02766); assay: blood plasma TTR binding selectivity, antibody capture method; settings: inhibitor 10.8 μM
T1 construct: from tissue; host or cells: human blood plasma
Procedure: Inhibitor binding selectivity to TTR in human blood plasma was assessed using a previously established antibody capture method (Purkey, H. E.; et al. Proc. Natl. Acad. Sci. USA 2001, 98, 5566-5571). In this evaluation, inhibitors (10.8 μM, ˜2-3× the natural concentration of TTR) are incubated in human blood plasma for 24 h at 37° C. Quenched sepharose resin is then added to the plasma to remove any small molecules that would bind to the resin as opposed to TTR. TTR and any TTR-bound small molecule is then immunocaptured using a polyclonal TTR antibody covalently attached to sepharose resin. After washing the resin (5×10 min washes), the antibody-TTR complex is dissociated at high pH and analyzed by RP-HPLC. The relative stoichiometry between TTR and inhibitor is then calculated from their HPLC peak areas using standard curves.
(§2) The procedures used for bacterial expression of TTR (Lai, Z.; et al. Biochemistry 1996, 35, 6470-6482), the stagnant fibril formation assay (Colon, W.; Kelly, J. W. Biochemistry 1992, 31, 8654-8660; Lai, Z.; et al. Biochemistry 1996, 35, 6470-6482), the blood plasma binding selectivity assay (Purkey, H. E.; et al. Proc. Natl. Acad. Sci. USA 2001, 98, 5566-5571), and analytical ultracentrifugation (Lashuel, H. A.; et al. Biochemistry 1998, 37, 17851-17864) have all been described in detail previously.
(§3) FIG. 3 is a chart showing a summary of dibenzofuran-based amyloid inhibition activity ([…]) against WT-TTR ([…]) fibril formation (pH 4.4, 72 h) and binding stoichiometry to TTR in human blood plasma. % Fibril formation (f.f.) values in the middle column represent the extent of f.f., and thus inhibitor efficacy, relative to WT-TTR f.f. in the absence of inhibitor (assigned to be 100%). Complete inhibition is equivalent to 0% f.f. The right column depicts the observed stoichiometry of inhibitor (dosed at […], ˜2-3× the concentration of plasma TTR) bound to TTR in blood plasma as determined using the antibody capture method.

WT-TTR = target: T2, WT-TTR (Homo sapiens, UniProt P02766); assay: stagnant acid-mediated TTR fibril formation assay (turbidity); assay type: biochemical; settings: WT-TTR 3.6 μM; for inhibitor potency against fibril formation (in words): inhibitor 3.6 μM, pH 4.4, 72 h
T2 construct: made in house
Procedure: as §1, §2
FIG. 2 is a table highlighting the concentration dependent acid-substituted dibenzofuran activity against WT-TTR (3.6 μM) amyloid fibril formation (f.f.) at pH 4.4 (72 h). Values represent the extent of f.f. and thus inhibitor efficacy relative to WT-TTR fibril formation in the absence of inhibitor (assigned to be 100%): complete inhibition is equivalent to 0% f.f.
as §3
FIG. 6 is a chart showing dibenzofuran-based inhibitor activity (7.2 μM) against WT-TTR (3.6 μM) amyloid fibril formation (f.f.) at pH 4.4 (72 h). […]

SMILES	precipitation of compound in the absence of TTR [1]	binding selectivity to TTR in human blood plasma (in words) [2]	inhibitor potency against fibril formation (in words) (WT-TTR)	further results
O=C(O)c1cccc2c1oc1c(C(=O)O)ccc(Nc3cc(Cl)cc(Cl)c3)c12 [Compound 30]	no measurable precipitation	–	–	–
O=C(O)c1cccc2c1oc1c(C(=O)O)cccc12 [Compound 1, dibenzofuran-4,6-dicarboxylic acid, reference compound]	–	no measurable binding selectivity	–	–
O=C(O)c1cccc2c1oc1c(C(=O)O)ccc(Nc3cccc(C(F)(F)F)c3)c12 [Compound 26]	no measurable precipitation	–	–	–
O=C(O)c1cccc(Nc2ccc(C(=O)O)c3oc4c(C(=O)O)cccc4c23)c1 [Compound 33]	–	modest	amongst the most potent	–
O=C(O)c1cccc(-c2ccc(C(=O)O)c3oc4c(C(=O)O)cccc4c23)c1 [Compound 69]	–	modest	amongst the most potent	–
O=C(O)c1cccc2c1oc1c(C(=O)O)ccc(-c3ccccc3F)c12 [Compound 67]	–	–	most potent	–
O=C(O)c1cccc2c1oc1c(C(=O)O)ccc(-c3cc(Cl)cc(Cl)c3)c12 [Compound 63]	–	–	most potent	–
O=C(O)c1cccc2c1oc1c(C(=O)O)ccc(-c3cc(F)cc(F)c3)c12 [Compound 62]	no measurable precipitation	–	–	–
O=C(O)c1cc(Nc2ccc(C(=O)O)c3oc4c(C(=O)O)cccc4c23)cc(C(=O)O)c1 [Compound 34]	–	–	all the inhibitors (except 34) display increased potency relative to the parent compound (1)	inhibition of WT-TTR fibril formation at 7.2 μM inhibitor (in words) (WT-TTR; inhibitor 7.2 μM, pH 4.4, 37° C., 72 h): not as effective; also recorded: all but one (34) completely inhibit fibril formation
O=C(O)c1ccc(Nc2ccc(C(=O)O)c3oc4c(C(=O)O)cccc4c23)cc1 [Compound 35]	–	all but two (31 and 35) exhibit dramatically increased binding selectivity	–	–
O=C(O)c1cccc2c1oc1c(C(=O)O)ccc(Nc3ccccc3F)c12 [Compound 36]	–	–	most potent	–
O=C(O)c1cccc2c1oc1c(C(=O)O)ccc(Nc3cccc(Cl)c3)c12 [Compound 27]	no measurable precipitation	–	–	–
O=C(O)c1cccc2c1oc1c(C(=O)O)ccc(Nc3cc(C(F)(F)F)cc(C(F)(F)F)c3)c12 [Compound 31]	–	all but two (31 and 35) exhibit dramatically increased binding selectivity	–	–
O=C(O)c1cccc2c1oc1c(C(=O)O)ccc(Oc3cccc(C(F)(F)F)c3)c12 [Compound 45]	no measurable precipitation	–	–	–
